Source: patent US20240025920A1, “SALT FORM USED AS CDC7 INHIBITOR AND CRYSTAL FORM THEREOF” (Chia Tai Tianqing Pharmaceutical Group Co., Ltd., priority 2020, published 2024)
Read-outs that look alike come from different tables or passages of the source.

Experiments:
CDC7/DBF4 kinase = CDC7/DBF4 kinase (Homo sapiens, UniProt O00311); assay: ADP-Glo kinase assay, inhibition of CDC7/DBF4 kinase activity; assay type: biochemical; details: for IC50: CDC7/DBF4, 10 μM ATP
Description: The ADP-Glo™ kinase assay is a chemiluminescent kinase assay. The reaction of kinase with substrate requires ATP to provide energy, thereby converting ATP into ADP. The enzymatic activity is reflected by the amount of ADP produced in the reaction. In the assay, ADP is converted into ATP, and then ATP binds to Ultra-Glo™ Luciferase with light emitted; the intensity of light emission is directly proportional to the amount of ADP.
The ADP-Glo™ assay was used to investigate the inhibitory effect of crystal form A of the test compound of formula (II) on the activity of CDC7/DBF4 kinase. The highest concentration of the test compound was 10 μM, and 5-fold serial dilution was performed to obtain 8 concentration points. The compound was re-tested on a different day, and each test was performed in duplicate.
• 1) Preparation of 10 mM DTT (freshly prepared at the time of use) • 1 μL of 0.1 M DTT was measured out and 9 μL of deionized water was added. • 2) 2× assay buffer (freshly prepared at the time of use) • 168 μL of Kinase assay buffer III was measured out and 2.5-fold diluted with 248 μL of deionized water, and 4.2 μL of 10 mM DTT was added. The buffer was kept on ice before use. • 3) 1× assay buffer (freshly prepared at the time of use) • 250 μL of 2× assay buffer was measured out and diluted into 1× assay buffer by adding 250 μL of deionized water. The buffer was kept on ice before use. • 4) ADP-Glo Kinase Assay
The kit contains an ADP-Glo™ reagent, a kinase assay solution, a kinase assay solution matrix and a 10 mM ATP stock solution.
Preparation of the kinase assay solution: The kinase assay buffer and the kinase assay solution matrix were equilibrated to room temperature and then mixed. After complete dissolution, the solution was ready. The unused solution should be aliquoted and stored at −20° C.
ADP-Glo™ reagent: The reagent was equilibrated to room temperature at the time of the first use. The unused solution should be aliquoted and stored at −20° C.
• 1) 10 mM test compound was diluted to 1 mM with 100% DMSO: 5 μL of 10 mM test compound was added to 45 μL of 100% DMSO; the concentration of the compound dilution was 1 mM, and the dilution was put into row A of a 384-well compound plate as the highest concentration. • 2) To row B through row H of the 384-well compound plate was added 20 μL of 100% DMSO. • 3) From row A, 5 μL of compound was transferred to row B, and the mixture was well mixed. Then 5 μL of compound was transferred from row B to row C, and the mixture was well mixed. This procedure was repeated to row H to complete the serial dilution of the compound. • 4) Preparation of compound working solutions: 0.5 μL/well of compound was transferred to a new 384-well compound plate, and 9.5 μL of 1× assay buffer was added. […]

COLO205 cells = assay: CellTiter-Glo cell viability assay, proliferation of COLO205 cells; assay type: cell-based, Human; details: for IC50: Homo sapiens, COLO 205, 72 h, COLO205, 3 days incubation
Description: In the assay, the inhibitory effect of crystal form A of the compound of formula (II) on the proliferation of colorectal cell COLO205 that highly expresses Cdc7 was investigated.
CellTiter-Glo® Luminescent Cell Viability Assay is a homogeneous rapid assay for the viability of living cells in cultures by ATP quantification. ATP is an indicator of the metabolism of living cells. Cell lysis and the luminescence signals generated are directly proportional to the amount of ATP that exists, and the amount of ATP is directly proportional to the number of living cells in cultures.
Cells having achieved 80%-90% cell fusion were digested with pancreatin. After the digestion was stopped with 1 mL of culture medium, the cells were transferred to a new culture dish according to a proper proportion, and 10 mL of fresh cell culture medium was added to the culture dish. Then the cell culture dish was placed in a 37° C., 5% CO2 incubator to continue the culture.
The compound was diluted to 2 mM with 100% DMSO—that is, 5 μL of 10 mM compound stock solution was transferred to column 1 of a 96-well compound plate, 20 μL of 100% DMSO was then added, and the mixture was well mixed. To column 2 through column 9 of the 96-well compound plate was added 20 μL of 100% DMSO. From column 1, 10 μL of compound was transferred to column 2, and the mixture was well mixed. Then 10 μL of compound was transferred from column 2 to column 3, and the mixture was well mixed. This procedure was repeated to column 9 to complete the serial dilution of the compound. Preparation of compound working solutions: From the compound plate, 2 μL/well of compound was transferred to a new 96-well compound plate, and 78 μL/well of cell culture medium was added. To a negative control well was added 2 μL of 100% DMSO followed by 78 μL of cell culture medium. The compound concentration was the final concentration. The blank control well was a culture medium well containing no cells. The negative control was […].
COLO205 cells having achieved 80%-90% cell fusion were digested with pancreatin and counted. After counting, the cell suspension was diluted with cell culture medium to a desired density. To each well of a 96-well cell culture plate was inoculated 80 μL of cell suspension. […]
After the incubation, 100 μL of CTG assay reagent was added to each well of the cell plate, and the plate was incubated at 25° C. for 10 min. After the incubation, luminescence signals were measured on Envision.
The signal value of the background blank control well was subtracted from the measured signal value of each group for standardization. […]
The percent inhibition was calculated from the original readings according to the calculation formula. A graph was then plotted using Prism and the IC50 of the compound was calculated.

[1] = Stability test under accelerated conditions (HPLC related substances, appearance, crystal form, ee); assay type: physicochemical; design: impurity at RRT 0.31 / impurity at RRT 1.40 / impurity at RRT 0.23 / impurity at RRT 0.91 / impurity at RRT 0.98 / impurity at RRT 0.99 / impurity at RRT 1.08: unit not given here
Description: Instrument model: Agilent 1200 high performance liquid chromatograph
50 mg of crystal form A of the compound of formula (II) was measured and placed in a dry, clean glass bottle, spread into a thin layer, and left to stand under accelerated conditions (60° C., 25/92.5% RH, 40° C./75% RH and 60° C./75% RH). The sample was completely exposed, and the bottle was covered with aluminum foil in which holes are pricked. Samples were taken at 5 days, 10 days, 1 month, 2 months and 3 months and analyzed.

[2] = Hygroscopicity test (25° C., saturated ammonium chloride solution, 24 h); assay type: physicochemical; details: 25° C./80% RH criteria
Description: A dry glass weighing bottle with a lid was placed in a dryer with saturated ammonium chloride solution placed in the lower part, and the weighing bottle was left to stand uncovered. A lid was put on the dryer, and the dryer was placed in a 25° C. box and left to stand overnight. After being left to stand overnight, the weighing bottle was taken out and precisely weighed, and the weight was denoted by m1.
A proper amount of crystal form A of the compound of formula (II) was measured out and spread in the weighed measuring bottle (the sample was about 1 mm thick). The measuring bottled was then precisely weighed, and the weight was denoted by m2.
The weighing bottle, together with its lid, was placed in a dryer with saturated ammonium chloride solution placed in the lower part and left to stand uncovered. A lid was put on the dryer, and the dryer was placed in a 25° C. box and left to stand for 24 h. After 24 h of sitting, the lid was put on the weighing bottle and the bottle was taken out and precisely weighed, the weight denoted by m3.
The hygroscopic weight gain was calculated using the formula: percent weight gain=100%×(m3−m2)/(m2−m1).

Sequence of CDC7/DBF4 kinase (O00311 whole entry): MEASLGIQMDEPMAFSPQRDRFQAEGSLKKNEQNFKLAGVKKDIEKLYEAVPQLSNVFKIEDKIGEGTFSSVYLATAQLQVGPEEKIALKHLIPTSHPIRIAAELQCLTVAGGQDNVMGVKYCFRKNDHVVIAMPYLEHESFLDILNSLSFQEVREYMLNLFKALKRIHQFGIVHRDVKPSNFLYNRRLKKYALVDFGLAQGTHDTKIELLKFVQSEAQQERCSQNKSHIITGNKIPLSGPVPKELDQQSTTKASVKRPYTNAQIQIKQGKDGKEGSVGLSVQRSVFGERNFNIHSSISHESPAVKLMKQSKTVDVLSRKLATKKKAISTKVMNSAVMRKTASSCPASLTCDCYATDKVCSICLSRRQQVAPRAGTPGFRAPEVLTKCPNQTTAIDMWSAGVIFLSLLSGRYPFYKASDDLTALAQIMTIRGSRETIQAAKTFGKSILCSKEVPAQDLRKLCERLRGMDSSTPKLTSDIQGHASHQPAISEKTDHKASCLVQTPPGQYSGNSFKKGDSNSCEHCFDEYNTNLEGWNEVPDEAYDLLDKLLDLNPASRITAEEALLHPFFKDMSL
Sequence of CDC7/DBF4 kinase (Q9UBU7 whole entry partner): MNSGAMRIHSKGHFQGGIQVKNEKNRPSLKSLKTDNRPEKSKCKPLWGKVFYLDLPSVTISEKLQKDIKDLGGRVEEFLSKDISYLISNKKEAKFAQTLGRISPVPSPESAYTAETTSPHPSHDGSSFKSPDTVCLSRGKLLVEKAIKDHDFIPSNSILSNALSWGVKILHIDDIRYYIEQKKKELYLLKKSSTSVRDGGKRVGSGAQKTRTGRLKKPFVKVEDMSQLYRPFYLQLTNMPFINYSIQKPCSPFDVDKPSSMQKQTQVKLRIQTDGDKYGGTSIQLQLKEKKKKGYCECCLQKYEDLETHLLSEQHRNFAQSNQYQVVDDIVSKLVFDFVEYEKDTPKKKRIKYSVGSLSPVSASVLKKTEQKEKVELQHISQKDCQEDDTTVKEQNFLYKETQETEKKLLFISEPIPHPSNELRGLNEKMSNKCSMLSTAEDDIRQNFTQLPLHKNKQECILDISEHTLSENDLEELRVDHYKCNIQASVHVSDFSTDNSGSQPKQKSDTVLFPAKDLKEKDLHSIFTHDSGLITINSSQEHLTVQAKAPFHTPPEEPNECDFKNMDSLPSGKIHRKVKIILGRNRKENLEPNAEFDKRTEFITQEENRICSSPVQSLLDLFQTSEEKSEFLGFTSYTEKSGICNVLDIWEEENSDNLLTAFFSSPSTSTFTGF

O=C(O)/C=C\C(=O)O.O=c1[nH]c([C@@H]2CC3CCN2CC3)nc2c3c(sc12)-c1cn[nH]c1CCC3
IC50 (CDC7/DBF4 kinase; first assay, read-out: IC50 (nM) First assay): 3.49 nM | IC50 (CDC7/DBF4 kinase; mean of two assays, read-out: IC50 (nM) Mean): 2.92 nM | IC50 (CDC7/DBF4 kinase; second assay, read-out: IC50 (nM) Second assay): 2.35 nM | inhibitory effect on enzyme CDC7/DBF4 (CDC7/DBF4 kinase; conclusion in words): relatively strong inhibitory effect | IC50 (COLO205 cells; first assay, read-out: COLO205(nM) IC50 First assay): 14.3 nM | IC50 (COLO205 cells; mean of two assays, read-out: COLO205(nM) IC50 Mean): 14.5 nM | IC50 (COLO205 cells; second assay, read-out: COLO205(nM) IC50 Second assay): 14.7 nM | inhibitory effect on COLO205 cells (COLO205 cells; conclusion in words): relatively strong inhibitory effect | Appearance ([1]; 0 days): White | ee % ([1]; 0 days): 99.028% | impurity at RRT 0.31 ([1]; 0 days): 0.02 | Appearance ([1]; 25/92.5% RH-5 days): White | TRS(%) total impurity content ([1]; 25/92.5% RH-5 days): 0.03% | ee % ([1]; 25/92.5% RH-5 days): 98.77% | impurity at RRT 0.31 ([1]; 25/92.5% RH-5 days): 0.03 | Appearance ([1]; 25/92.5% RH-10 days): White | TRS(%) total impurity content ([1]; 25/92.5% RH-10 days): 0.06% | ee % ([1]; 25/92.5% RH-10 days): 98.958% | impurity at RRT 0.31 ([1]; 25/92.5% RH-10 days): 0.03 | impurity at RRT 1.40 ([1]; 25/92.5% RH-10 days): 0.03 | Appearance ([1]; 40° C./75% RH-1 month): White | TRS(%) total impurity content ([1]; 40° C./75% RH-1 month): 0.02% | ee % ([1]; 40° C./75% RH-1 month): 99.380% | impurity at RRT 0.31 ([1]; 40° C./75% RH-1 month): 0.02 | Appearance ([1]; 40° C./75% RH-2 months): White | TRS(%) total impurity content ([1]; 40° C./75% RH-2 months): 0.02% | ee % ([1]; 40° C./75% RH-2 months): 100% | impurity at RRT 0.91 ([1]; 40° C./75% RH-2 months): 0.02 | Appearance ([1]; 40° C./75% RH-3 months): White | TRS(%) total impurity content ([1]; 40° C./75% RH-3 months): 0% | ee % ([1]; 40° C./75% RH-3 months): 100% | Appearance ([1]; 40° C./75% RH-10 days): White | TRS(%) total impurity content ([1]; 40° C./75% RH-10 days): 0.04% | ee % ([1]; 40° C./75% RH-10 days): 99.164% | impurity at RRT 0.23 ([1]; 40° C./75% RH-10 days): 0.02 | impurity at RRT 0.31 ([1]; 40° C./75% RH-10 days): 0.02 | Appearance ([1]; 60° C.-5 days): White | TRS(%) total impurity content ([1]; 60° C.-5 days): 0.06% | ee % ([1]; 60° C.-5 days): 98.632% | impurity at RRT 0.23 ([1]; 60° C.-5 days): 0.03 | impurity at RRT 0.31 ([1]; 60° C.-5 days): 0.03 | Appearance ([1]; 60° C.-10 days): White | TRS(%) total impurity content ([1]; 60° C.-10 days): 0.10% | ee % ([1]; 60° C.-10 days): 98.900% | impurity at RRT 0.23 ([1]; 60° C.-10 days): 0.02 | impurity at RRT 0.31 ([1]; 60° C.-10 days): 0.03 | impurity at RRT 1.08 ([1]; 60° C.-10 days): 0.05 | Appearance ([1]; 60° C./75% RH-1 month): White | TRS(%) total impurity content ([1]; 60° C./75% RH-1 month): 0.08% | ee % ([1]; 60° C./75% RH-1 month): 100% | impurity at RRT 0.23 ([1]; 60° C./75% RH-1 month): 0.02 | impurity at RRT 0.98 ([1]; 60° C./75% RH-1 month): 0.03 | impurity at RRT 0.99 ([1]; 60° C./75% RH-1 month): 0.03 | Appearance ([1]; 60° C./75% RH-10 days): White | TRS(%) total impurity content ([1]; 60° C./75% RH-10 days): 0.03% | ee % ([1]; 60° C./75% RH-10 days): 98.872% | impurity at RRT 0.23 ([1]; 60° C./75% RH-10 days): 0.03 | stability (impurity content) under high temperature and high humidity conditions ([1]; conclusion in words): the stability is good | category of hygroscopicity [2]: non-hygroscopic or hardly hygroscopic
